In PMC3532936 (Journal of biomolecular screening, 2011):
“And” between values parts separate entries of the source, which are not always exact repeats. Equal entries are not always repeated. Where two headings read alike, the source gives them in different places.

Experiments:
YF CE [1] = target: T1, YF CE (Yellow fever virus, UniProt P03314)
DEN2 CE = target: T2, DEN2 CE (Dengue virus type 2, UniProt P29990); format: binding, dengue virus 2 (strain 16681)
T2 sequence (P29990 2493-2755 limits assumed): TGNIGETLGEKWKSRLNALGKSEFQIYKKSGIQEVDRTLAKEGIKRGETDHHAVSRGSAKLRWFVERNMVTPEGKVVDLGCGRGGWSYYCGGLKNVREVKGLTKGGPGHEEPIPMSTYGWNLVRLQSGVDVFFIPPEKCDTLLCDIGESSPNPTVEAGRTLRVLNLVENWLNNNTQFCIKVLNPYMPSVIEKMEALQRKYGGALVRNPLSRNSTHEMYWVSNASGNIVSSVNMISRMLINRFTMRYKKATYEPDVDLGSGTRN

YF CE [2] = target: T1, YF CE; format: binding, yellow fever virus (strain 17D)
CE protein (YF or DEN) = conditions: read-out: Ki for the displacement of GTP–BODIPY; competition assay; cited from earlier work
DEN CE = target: T3, DEN CE (Dengue virus type 2, UniProt P29990); format: biochemical
T3 sequence (P29990 2493-2755 limits assumed): T2 sequence (P29990 2493-2755 limits assumed)

T1 sequence (P03314 2507-2771 limits assumed): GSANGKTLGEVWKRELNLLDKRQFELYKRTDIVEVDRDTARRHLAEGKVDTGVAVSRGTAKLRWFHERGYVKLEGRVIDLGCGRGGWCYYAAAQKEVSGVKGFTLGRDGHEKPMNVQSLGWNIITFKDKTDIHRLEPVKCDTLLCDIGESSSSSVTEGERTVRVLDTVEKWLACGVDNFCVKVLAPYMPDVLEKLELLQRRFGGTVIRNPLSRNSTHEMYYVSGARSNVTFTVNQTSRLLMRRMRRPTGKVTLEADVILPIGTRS

Compound | Ki (YF CE [1]; read-out: apparent Ki, FP, YF) [µM] | Ki (YF CE [1]; read-out: apparent Ki, TF, YF) [µM] | Ki (DEN2 CE; read-out: apparent Ki, FP, DEN) [µM] | Ki (DEN2 CE; read-out: apparent Ki, TF, DEN) [µM] | Percent Inhibition HTS (YF CE [2]) [%] | Ki (CE protein (YF or DEN)) [µM] | average mP value of inhibition (YF CE [2]) | inhibition of guanylation (in words) (DEN CE) | IC50 (DEN CE; read-out: Guanylation IC50 DEN) [µM]
COC(=O)[n+]1ccc(N2CCOCC2)cc1 [BAS01531218] | 4.9 ± 1 | 6.2 ± 1.4 | 4.8 ± 1.5 | 2.6 ± 0.5 | 12 | – | – | – | –
Nc1nc2c(ncn2[C@@H]2O[C@H](COP(=O)(O)OP(=O)(O)OP(=O)(O)O)[C@@H](O)[C@H]2O)c(=O)[nH]1 [GTP, guanosine triphosphate, reference compound] | – | – | – | – | – | 0.04 | 42.4 ± 5.19 mP and 81.8 ± 6.09 mP | – | –
Cc1ccc(C)n1C(Cc1c[nH]c2ccccc12)C(=O)O (stereo not drawn) [BAS 01211690] | 5.8 ± 0.5 | 5.8 ± 1.7 | 10.1 ± 1.3 | 9.1 ± 2.5 | 23 | – | – | weaker inhibition of guanylation | 78.9 ± 37.8
Nc1ncnc2c1ncn2[C@@H]1O[C@H](COP(=O)(O)OP(=O)(O)OP(=O)(O)O)[C@@H](O)[C@H]1O [adenosine triphosphate (ATP), adenosine triphosphate] | – | – | – | – | – | 350 | – | – | –
